Results published in US10597696B2, “Detection of Niemann-Pick disease comprising detection of lysozyme and cathepsins” (UNIVERSITY OF NOTRE DAME DU LAC, priority 2013, dated 2020).
“Also recorded” adds a separate entry of the source.

Tested on: Npc1^nih Npc1^−/− mouse liver
Assay: Immunohistochemistry of liver sections after HPβCD
Format: in vivo
Description: Mice were sacrificed by asphyxiation using CO2. The circulatory bed was washed with PBS (pH 7.4), and subsequently perfused with 10% neutral buffered formalin (˜4% formaldehyde). The organs (brain and liver) were surgically harvested and stored in 4% formaldehyde at room temperature (RT) until transfer to paraffin. Paraffin-embedded tissue sections (3-4 μm) were dewaxed in xylene and alcohol. For Ly-6G and calbindin staining, antigen retrieval was done by pre-incubating deparaffinized samples with 0.05% proteinase K (Dako, Germany) in 50 mM Tris-HCl (pH 7.5) for 8 min at RT. CTSS and lysozyme were retrieved by boiling the sections in acidic condition for 30 min. Sections were incubated with anti-Ly-6G (20 μg/ml), anti-calbindin (1:1000), anti-CTSS (20 μg/ml) or anti-lysozyme (1:20) overnight at 4° C. Reagents were prepared according to the manufacturer's instructions (Vector laboratories). The staining protocol was followed as described previously (19). The secondary antibody for neutrophil staining was biotinylated rabbit anti-rat IgG (mouse absorbed, Vector Laboratories) and for Purkinje neurons was biotinylated horse anti-mouse IgG (Vector Laboratories).
For fluorescence microscopy, FITC-conjugated IgG (MP Biomedicals, Solon, Ohio, USA) was the secondary antibody. Sections stained only with secondary antibodies served as controls. Brightfield images were acquired on a Nikon Olympus microscope, using a Nikon digital DS-Fi1-U2 camera controlled by NIS-Elements F3.0 Nikon software (all from Nikon Instruments INC, Tokyo, Japan). Images were visualized with A10 PL 10×/0.25, or a DPIan Apo 40×/1.00 oil-immersion or a DPIan Apo 100×/1.30 oil-immersion objective lens (Nikon). Fluorescence microscopy and digital image collection were performed using an Olympus IX inverted fluorescence microscope and a Photometrix cooled CCD camera (CH350/LCCD) driven by DeltaVision software from Applied Precision (Seattle, Wash., USA). DeltaVision software (softWoRx) was used to deconvolve these images. Images were visualized with 40× oil-immersion objective lens and are single optical sections. ImageJ (National Institute of Health, Bethesda, Md., USA) software was used to process and quantify the fluorescence intensity of CTSS and lysozyme.
Starting at P21 and once a week thereafter, Npc1^nih and Npc1^nmf164 mice were injected i.p with 20% 2-hydroxypropyl-beta-cyclodextrin (HPβCD, 4000 mg/Kg) prepared in 0.2% DMSO and 0.9% saline. Control mice received 0.2% DMSO in 0.9% saline. Blood was collected either via cheek bleed or terminal heart bleed from mice in EDTA tubes (BD Biosciences, San Jose, Calif., USA). Plasma was separated by centrifugation at 2500 rpm for 15 min and stored at −70° C. until used.

Which results are given for CC(O)COC[C@H]1O[C@@H]2O[C@H]3[C@H](O)[C@@H](O)[C@@H](O[C@H]4[C@H](O)[C@@H](O)[C@@H](O[C@H]5[C@H](O)[C@@H](O)[C@@H](O[C@H]6[C@H](O)[C@@H](O)[C@@H](O[C@H]7[C@H](O)[C@@H](O)[C@@H](O[C@H]8[C@H](O)[C@@H](O)[C@@H](O[C@H]1[C@H](O)[C@H]2O)O[C@@H]8COCC(C)O)O[C@@H]7COCC(C)O)O[C@@H]6COCC(C)O)O[C@@H]5COCC(C)O)O[C@@H]4COCC(C)O)O[C@@H]3COCC(C)O (stereo partly drawn) [HPβCD, 2-hydroxypropyl-beta-cyclodextrin]?
CTSS accumulation in liver (Npc1^−/− mice, anti-CTSS IHC): dramatically reduced; accumulation of foamy macrophages in liver (Npc1^−/− mice, anti-CTSS IHC): eliminated accumulation of foamy macrophages; also recorded: eliminated the foamy macrophages and CTSS staining; neutrophil clusters in liver (Npc1^−/− mice, anti-Ly-6G IHC, 50 and 80 days): reduced neutrophil clusters; also recorded: barely detected; macrophages containing lysozyme in liver (Npc1^−/− mice, anti-lysozyme staining): largely eliminated; hepatocyte architecture (animals treated with HPβCD, histochemistry): decreased cytoplasmic staining with slight irregular plasma membrane
